Experimental data from patent publication US20140323721A1, “HETEROCYCLIC COMPOUNDS AND USES THEREOF” (INTELLIKINE, LLC, priority 2011, published 2014).

What follows are compounds tested on MDA-MB-361 (assay: MDA-MB-361 proliferation). Details: Homo sapiens; in vitro IC50, MDA-MB-361 cells.
Type: cell-based
Method: The ability of one or more subject compounds to inhibit tumor cell line proliferation is determined according to standard procedures known in the art. For instance, an in vitro cellular proliferation assay can be performed to measure the metabolic activity of live cells. The assay is performed in a 96 well microtiter plate using Alamar Blue reduction. Human tumor cell lines are obtained from ATCC (e.g., MCF7, U-87 MG, MDA-MB-468, PC-3), grown to confluency in T75 flasks, trypsinized with 0.25% trypsin, washed one time with Tumor Cell Media (DMEM+10% FBS), and plated in 90 ul at 5,000 cells/well in Tumor Cell Media. A compound disclosed herein is diluted in Tumor Cell Media and added in a 10 ul volume. Plates are incubated for 72 hours at 37 C and 5% CO2. A volume of 10 uL of Alamar Blue reagent is added to each well and plates are incubated for 3 hours at 37 C and 5% CO2. Alamar Blue fluoresce is read at 560 Ex/590 Em, and IC50 values are calculated using GraphPad Prism 5.
Cells comprising one or more mutations in PI3Kα, including but not limited to breast cancer cells (e.g., MDA-MB-361 and T47D), and cells comprising one or more mutations in PTEN including but not limited to prostate cancer cells (e.g., PC3), are typically grown in cell growth media such as DMEM supplemented with fetal bovine serum and/or antibiotics, and grown to confluency. Cells are then treated with various concentrations of test compound for about 2 hours and subsequently lysed in cell lysis buffer. Lysates are subjected to SDS-PAGE followed by Western blot analysis to detect downstream signaling markers, including but not limited to pAKT(S473), pAKT(T308), pS6, and p4E-BP1. Degree of proliferation (and proliferation inhibition) can also be measured for cells at various doses of compound of the present invention.

| SMILES | IC50 [µM] |
| --- | --- |
| Nc1nc2cc(-c3ccc4ncc(N5CC(N6CCNCC6)C5)nc4n3)ccc2o1 [Compound 34] | > 10 |
| Nc1nc2cc(-c3ccc4ncc(N5CCOCC5)cc4n3)ccc2o1 [Compound 22] | < 10 |
| Nc1nc2cc(-c3ccc4ncc(-c5cccnc5)cc4n3)ccc2o1 [Compound 16] | > 10 |
| C[C@H]1COCCN1c1cnc2ccc(-c3ccc4oc(N)nc4c3)nc2n1 [Compound 15] | < 1 |
| C[C@@H](N)C(=O)N1CCN(c2cnc3ccc(-c4ccc5oc(N)nc5c4)nc3c2)CC1 [Compound 39] | < 10 |
| NCC(=O)N1CCN(c2cnc3ccc(-c4ccc5oc(N)nc5c4)nc3c2)CC1 [Compound 37] | < 10 |
| C[C@H](N)C(=O)N1CCN(c2cnc3ccc(-c4ccc5oc(N)nc5c4)nc3c2)CC1 [Compound 38] | < 10 |
| Nc1nc2cc(-c3ccc4ncc(N5CCN(C(=O)C6(N)CC6)CC5)nc4n3)ccc2o1 [Compound 41] | < 10 |
| CC(C)N1CCN(c2cnc3ccc(-c4ccc5oc(N)nc5c4)nc3c2)CC1 [Compound 44] | < 10 |
| Nc1nc2cc(-c3ccc4ncc(N5CCC(F)(F)CC5)nc4n3)ccc2o1 [Compound 13] | < 10 |
| CN1CCN(c2cnc3ccc(-c4ccc5oc(N)nc5c4)nc3c2)CC1 [Compound 24] | < 10 |
| CC(C)(N)C(=O)N1CCN(c2cnc3ccc(-c4ccc5oc(N)nc5c4)nc3n2)CC1 [Compound 40] | < 10 |
| Nc1nc2cc(-c3ccc4ncc(N5CC(N6CCN(CC7CC7)CC6)C5)nc4n3)ccc2o1 [Compound 35] | < 10 |
| CC(C)(N)C(=O)N1CCN(c2cnc3ccc(-c4ccc5oc(N)nc5c4)nc3c2)CC1 [Compound 43, 2-amino-1-(4-(6-(2-aminobenzo[d]oxazol-5-yl)-1,5-naphthyridin-3-yl)piperazin-1-yl)-2-methylpropan-1-one] | < 1 |
| C[C@@H]1CN(C2CN(c3cnc4ccc(-c5ccc6oc(N)nc6c5)nc4n3)C2)CCN1 [Compound 12] | < 10 |
| CCOC(=O)N1CCN(c2cnc3ccc(-c4ccc5oc(N)nc5c4)nc3c2)CC1 [Compound 36] | < 1 |
| CCOC(=O)N1CC=C(c2cnc3ccc(-c4ccc5oc(N)nc5c4)nc3n2)CC1 [Compound 9] | < 1 |

| SMILES | IC50 [µM] |
| --- | --- |
| C[C@H]1CN(c2cnc3ccc(-c4ccc5oc(N)nc5c4)nc3n2)CCN1 [Compound 1] | < 10 |
| CC(C)N1CCN(c2cnc3ccc(-c4ccc5oc(N)nc5c4)nc3n2)CC1 [Compound 32] | < 10 |
| CN1CCN(c2cnc3ccc(-c4ccc5oc(N)nc5c4)nc3n2)CC1 [Compound 4] | < 10 |
| Nc1nc2cc(-c3ccc4ncc(N5CC(N6CCOCC6)C5)nc4n3)ccc2o1 [Compound 5] | < 10 |
| Nc1nc2cc(-c3ccc4ncc(N5CCNC(=O)C5)nc4n3)ccc2o1 [Compound 29] | < 1 |
| C[C@H]1CN(C2CN(c3cnc4ccc(-c5ccc6oc(N)nc6c5)nc4n3)C2)CCN1C [Compound 21] | < 10 |
| CS(=O)(=O)N1CCN(C2CN(c3cnc4ccc(-c5ccc6oc(N)nc6c5)nc4n3)C2)CC1 [Compound 8] | < 10 |
| CCOC(=O)N1CCN(c2cnc3ccc(-c4ccc5oc(N)nc5c4)nc3n2)CC1 [Compound 6] | < 1 |
| C[C@@H]1COCCN1c1cnc2ccc(-c3ccc4oc(N)nc4c3)nc2n1 [Compound 14] | < 1 |
| C[C@@H](N)C(=O)N1CCN(c2cnc3ccc(-c4ccc5oc(N)nc5c4)nc3n2)CC1 [Compound 31] | < 10 |
| C[C@@H]1CN(C2CN(c3cnc4ccc(-c5ccc6oc(N)nc6c5)nc4n3)C2)CCN1C [Compound 25] | < 10 |
| NCC(=O)N1CCN(c2cnc3ccc(-c4ccc5oc(N)nc5c4)nc3n2)CC1 [Compound 33] | > 10 |
| Nc1nc2cc(-c3ccc4ncc(N5CCN(C(=O)C6(N)CC6)CC5)cc4n3)ccc2o1 [Compound 42] | < 1 |
| Nc1nc2cc(-c3ccc4ncc(N5CCOCC5)nc4n3)ccc2o1 [Compound 2, 5-(3-morpholinopyrido[2,3-b]pyrazin-6-yl)benzo[d]oxazol-2-amine] | < 1 |
| C[C@@H]1CN(c2cnc3ccc(-c4ccc5oc(N)nc5c4)nc3n2)CCN1 [Compound 27] | < 10 |
| C[C@H]1CN(C2CN(c3cnc4ccc(-c5ccc6oc(N)nc6c5)nc4n3)C2)CCN1 [Compound 10] | < 10 |

Continued, values first:

| IC50 [µM] | SMILES |
| --- | --- |
| > 10 | C[C@H]1COCCN1C1CN(c2cnc3ccc(-c4ccc5oc(N)nc5c4)nc3n2)C1 [Compound 61] |
| < 1 | C[C@@H]1CN(C2CN(c3cnc4ccc(-c5ccc6oc(N)nc6c5)nc4c3)C2)CCN1C [Compound 57] |
| < 10 | Nc1nc2cc(-c3ccc4ncc(N5CCC(O)CC5)cc4n3)ccc2o1 [Compound 62] |
| < 10 | C[C@@H]1COCCN1C1CN(c2cnc3ccc(-c4ccc5oc(N)nc5c4)nc3c2)C1 [Compound 66] |
| < 1 | CC1(C)CN(C2CN(c3cnc4ccc(-c5ccc6oc(N)nc6c5)nc4c3)C2)CCN1 [Compound 58] |
| < 1 | CC(C)N1CCN(C2CN(c3cnc4ccc(-c5ccc6oc(N)nc6c5)nc4c3)C2)CC1 [Compound 72, 5-(7-(3-(4-isopropylpiperazin-1-yl)azetidin-1-yl)-1,5-naphthyridin-2-yl)benzo[d]oxazol-2-amine] |
| < 10 | Nc1nc2cc(-c3ccc4ncc(N5CC(N6CCOCC6)C5)cc4n3)ccc2o1 [Compound 53] |
| < 1 | Nc1nc2cc(-c3ccc4ncc(N5CC(N6CCN(CC7CC7)CC6)C5)cc4n3)ccc2o1 [Compound 60] |
| < 10 | Nc1nc2cc(-c3ccc4ncc(N5CC(N6CCN(C7CC7)CC6)C5)cc4n3)ccc2o1 [Compound 70] |
| < 10 | C[C@H]1COCCN1C1CN(c2cnc3ccc(-c4ccc5oc(N)nc5c4)nc3c2)C1 [Compound 68] |
| < 1 | C[C@H]1CN(C2CN(c3cnc4ccc(-c5ccc6oc(N)nc6c5)nc4c3)C2)CCN1 [Compound 54] |
| < 1 | C[C@@H]1CN(C2CN(c3cnc4ccc(-c5ccc6oc(N)nc6c5)nc4c3)C2)CCN1 [Compound 56] |
| < 10 | Nc1nc2cc(-c3ccc4ncc(N5CC(N6CCN(C7CC7)CC6)C5)nc4n3)ccc2o1 [Compound 69] |
| < 10 | C[C@@H]1CN(c2cnc3ccc(-c4ccc5oc(N)nc5c4)nc3c2)CCN1 [Compound 48] |
| < 1 | CN1CCN(C2CN(c3cnc4ccc(-c5ccc6oc(N)nc6c5)nc4c3)C2)CC1 [Compound 74] |
| < 10 | CN1CC2CN(c3cnc4ccc(-c5ccc6oc(N)nc6c5)nc4n3)CC2C1 (stereo not drawn) [Compound 78] |
| < 1 | Nc1nc2cc(-c3ccc4ncc(N5CC(N6CCN(CCO)CC6)C5)cc4n3)ccc2o1 [Compound 65] |
| < 1 | CN1CCN(C2CN(c3cnc4ccc(-c5ccc6oc(N)nc6c5)nc4c3)C2)CC1=O [Compound 64] |
| < 10 | Nc1nc2cc(-c3ccc4ncc(N5CC(N6CCN(CCO)CC6)C5)nc4n3)ccc2o1 [Compound 46] |
| < 1 | CC1(C)CN(C2CN(c3cnc4ccc(-c5ccc6oc(N)nc6c5)nc4n3)C2)CCN1 [Compound 52] |
| < 10 | Cc1nccn1C1CN(c2cnc3ccc(-c4ccc5oc(N)nc5c4)nc3c2)C1 [Compound 63] |
| < 10 | Cc1nccn1C1CN(c2cnc3ccc(-c4ccc5oc(N)nc5c4)nc3n2)C1 [Compound 50] |
| < 10 | C[C@H]1CN(c2cnc3ccc(-c4ccc5oc(N)nc5c4)nc3c2)CCN1 [Compound 47] |
| < 10 | CN1CCN(C2CN(c3cnc4ccc(-c5ccc6oc(N)nc6c5)nc4n3)C2)CC1 [Compound 71] |
| < 1 | C[C@H]1CN(C2CN(c3cnc4ccc(-c5ccc6oc(N)nc6c5)nc4c3)C2)CCN1C [Compound 55] |
| < 1 | CCN1CCN(C2CN(c3cnc4ccc(-c5ccc6oc(N)nc6c5)nc4c3)C2)CC1 [Compound 75] |
| < 1 | Nc1nc2cc(-c3ccc4ncc(N5CCC(O)CC5)nc4n3)ccc2o1 [Compound 45] |
